{"source": "PubChem BioAssay (NCI)", "note": "“And” between values parts separate entries of the source, which are not always exact repeats. Equal entries are not always repeated.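 Five concentrations, 48 hours, 96-well plates. GI50 is the concentration that inhibits growth by half. At the TGI there is no net growth.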"}
{"test_system": "OVCAR-5 ovarian", "test": "NCI tumour cell line growth inhibition, 48 h", "units": {"TGI": "µM", "GI50": "µM"}}
{"smiles": "N#CC1C(C#N)C2(c3ccccc3)C(c3ccccc3)=NN(c3ccccc3)CC12", "note": "(centres undefined)", "TGI": "> 100"}
{"smiles": "COc1cc(Cc2cnc(/N=C3\\C(=O)N(CN4CCN(c5c(F)cc6c(=O)c(C(=O)O)cn(C7CC7)c6c5OC)CC4C)c4ccc(F)cc43)nc2N)cc(OC)c1OC", "note": "(centres undefined)", "GI50": 10.6, "TGI": 22.5}
{"smiles": "O=C(Nc1ccccc1)NS(=O)(=O)c1ccc(-n2nc3c(c2-c2cccs2)Cc2ccccc2-3)cc1", "GI50": 20.1, "TGI": 89.7}
{"smiles": "CCCCOC(=O)C1OC(O[C@H]2CCC3(C)C(CCC4(C)C3CC=C3C5CC(C)(C)CCC5(C(=O)O)CC[C@]34C)C2(C)C)C(OC2OC(CO)C(O)C(O)C2O)C(OC2OC(CO)C(O)C(O)C2O)C1O", "note": "(some centres undefined)", "GI50": 28.8, "TGI": 56.4}
{"smiles": "Cc1nc2ccccc2c(=O)n1-c1ccccc1I", "TGI": "> 100"}
{"smiles": "CN1C(=O)C(C)(C)C2(SC(C)(C)C2(C)C)N(C)C1=S", "note": "(centres undefined)", "TGI": "> 100"}
{"smiles": "N#CCCN(CCC#N)c1ccc(/C=C2\\N=C(c3cc([N+](=O)[O-])ccc3Cl)OC2=O)cc1", "TGI": "> 100"}
{"smiles": "CC1=C(C(=O)Nc2ccc(Cl)c(Cl)c2)C(c2cccc(Oc3ccccc3)c2)NC(=S)N1", "note": "(centres undefined)", "GI50": 9.38, "TGI": 18.7}
{"smiles": "CC1(c2ccc(F)cc2)C(C#N)C(=O)NC(=O)C1C#N", "note": "(centres undefined)", "TGI": "> 100"}
{"smiles": "O=C1C2C(C(=O)N1OS(=O)(=O)c1ccccc1)N(Cc1ccccc1)C(=O)N2Cc1ccccc1", "note": "(centres undefined)", "TGI": "> 100"}
{"smiles": "Cc1ccc(N=Nc2ccc(N(CCC#N)CCC#N)cc2C)c(Br)c1", "TGI": "> 100"}
{"smiles": "Cc1cc(C)nc(NS(=O)(=O)c2ccc(NC(=O)c3ccc(Cl)c4c(Nc5ccc(S(=O)(=O)Nc6nc(C)cc(C)n6)cc5)c5ccccc5nc34)cc2)n1", "TGI": 32.4}
{"smiles": "COc1ccc2c3c1C(=O)CCCC3CO2", "note": "(centres undefined)", "TGI": "> 100"}
{"smiles": "NC(=O)c1sc(-n2cnc3ccccc32)cc1OCc1ccccc1Br", "GI50": 4.94, "TGI": "> 25"}
{"smiles": "N#CC(c1ccc(Cl)cc1)c1cccc(C(C#N)c2ccc(Cl)cc2)n1", "note": "(centres undefined)", "TGI": "> 100"}
{"smiles": "O=C1/C(=C/c2ccccc2)CN(C(=O)C(Cl)(Cl)Cl)C/C1=C\\c1ccccc1", "TGI": 6.42}
{"smiles": "O=S1(=O)c2ccccc2NC(c2ccc3ccccc3c2)CC1c1ccccc1F", "note": "(centres undefined)", "TGI": "> 100"}
{"smiles": "Cc1nc2ccccc2c(N)c1-c1cc(C)c2c(C)nc3ccccc3c2n1", "GI50": 1.59, "TGI": 3.06}
{"smiles": "Cc1ccc(NC2=C(Cl)C(=O)N(Cc3ccccc3)C2=O)cc1O", "GI50": "> 100", "TGI": "> 100"}
{"test_system": "HT29 colon", "test": "NCI tumour cell line growth inhibition, 48 h", "units": {"GI50": "µM"}}
{"smiles": "CCN(CCO)CC1CCCC2CCCCC21", "note": "(centres undefined)", "TGI": "> 100 µM"}
{"smiles": "CC[C@@]1(O)C[C@H](OC2CC(N(C)C)C(O)C(C)O2)c2c(O)c3c(c(O)c2[C@H]1OC1CC(N(C)C)C(O)C(C)O1)C(=O)c1cccc(O)c1C3=O", "note": "(some centres undefined)", "GI50": "< 0.01", "TGI": "0.353 µM and 0.109 µM"}
{"smiles": "COC1(OC)CCC2C1C1CCC(OC)(OC)C21", "note": "(centres undefined)", "TGI": "> 50 µM"}
{"smiles": "NNC(=O)Nc1cccnc1", "TGI": "> 100 µM"}
{"smiles": "CC/C=C\\CCC/C=C1/C(=O)C=C[C@@H]1C/C=C\\CCCC(=O)OC", "GI50": 2.14, "TGI": "3.87 µM"}
{"smiles": "COc1ccc(-c2nc3sccn3c2/C(N)=N/C(=N)N)cc1OC", "GI50": 58.4, "TGI": "> 100 µM"}
{"smiles": "CCCCCCCCCCCOc1ccc(C(=O)C(=O)c2ccc(OCCCCCCCCCCC)c(OCCCCCCCCCCC)c2)cc1OCCCCCCCCCCC", "TGI": "> 100 µM"}
{"smiles": "Cn1cnc([N+](=O)[O-])c1Sc1nnc(-c2cccnc2)n1C", "TGI": "47.9 µM"}
{"smiles": "CCOC(=O)C1=C(C)NC(=S)NC1c1ccccc1", "note": "(centres undefined)", "TGI": "> 100 µM"}
{"smiles": "COC1=CC(=O)c2nc(-c3ccncc3)[nH]c2C1=O", "GI50": "> 100", "TGI": "> 100 µM"}
{"smiles": "O=C(/C=C/c1ccccc1)NC1C=Nc2ccc(Cl)cc2NC1=O", "note": "(centres undefined)", "TGI": "> 100 µM"}
{"smiles": "CC(C)C/C(CC(=O)CCC(=O)Nc1ccccc1[N+](=O)[O-])=N\\NC(=O)c1cc2ccccc2cc1O", "TGI": "> 100 µM"}
{"smiles": "O=C(O)c1ccccc1[Se][Se]c1ccccc1C(=O)O", "TGI": "> 100 µM"}
{"smiles": "O=C(O)CCc1coc2ccc(O)cc12", "TGI": "> 100 µM"}
{"smiles": "Clc1cc2nsnc2c(Cl)n1", "TGI": "49.3 µM"}
{"smiles": "COc1cc(Cc2cnc(/N=C3\\C(=O)N(CN4CCN(c5c(F)cc6c(=O)c(C(=O)O)cn(C7CC7)c6c5OC)CC4C)c4ccc(F)cc43)nc2N)cc(OC)c1OC", "note": "(centres undefined)", "GI50": 14.9, "TGI": "> 100 µM"}
{"smiles": "Cc1cccc2c(=O)cc(-c3ccccc3)[nH]c12", "TGI": "> 100 µM"}
{"smiles": "O=C(Nc1ccccc1)NS(=O)(=O)c1ccc(-n2nc3c(c2-c2cccs2)Cc2ccccc2-3)cc1", "GI50": 26.7, "TGI": "> 100 µM"}
{"smiles": "CCCCOC(=O)C1OC(O[C@H]2CCC3(C)C(CCC4(C)C3CC=C3C5CC(C)(C)CCC5(C(=O)O)CC[C@]34C)C2(C)C)C(OC2OC(CO)C(O)C(O)C2O)C(OC2OC(CO)C(O)C(O)C2O)C1O", "note": "(some centres undefined)", "GI50": 34.2, "TGI": "> 100 µM"}
{"smiles": "Cc1nc2ccccc2c(=O)n1-c1ccccc1I", "TGI": "> 100 µM"}
{"smiles": "CN1C(=O)C(C)(C)C2(SC(C)(C)C2(C)C)N(C)C1=S", "note": "(centres undefined)", "TGI": "> 100 µM"}
{"smiles": "N#CCCN(CCC#N)c1ccc(/C=C2\\N=C(c3cc([N+](=O)[O-])ccc3Cl)OC2=O)cc1", "TGI": "> 100 µM"}
{"smiles": "CC1(c2ccc(F)cc2)C(C#N)C(=O)NC(=O)C1C#N", "note": "(centres undefined)", "TGI": "> 100 µM"}
{"smiles": "O=C1C2C(C(=O)N1OS(=O)(=O)c1ccccc1)N(Cc1ccccc1)C(=O)N2Cc1ccccc1", "note": "(centres undefined)", "TGI": "> 100 µM"}
{"smiles": "COc1ccc2c(C3=C(c4cn(C)c5ccccc45)C(=O)NC3=O)cn(C)c2c1", "GI50": 0.098, "TGI": "> 14 µM"}
{"smiles": "Cc1ccc(N=Nc2ccc(N(CCC#N)CCC#N)cc2C)c(Br)c1", "TGI": "27.4 µM"}
{"smiles": "Cc1cc(C)nc(NS(=O)(=O)c2ccc(NC(=O)c3ccc(Cl)c4c(Nc5ccc(S(=O)(=O)Nc6nc(C)cc(C)n6)cc5)c5ccccc5nc34)cc2)n1", "TGI": "> 100 µM"}
{"smiles": "COc1ccc2c3c1C(=O)CCCC3CO2", "note": "(centres undefined)", "TGI": "> 100 µM"}
{"smiles": "NC(=O)c1sc(-n2cnc3ccccc32)cc1OCc1ccccc1Br", "GI50": 1.06, "TGI": "> 25 µM"}
{"smiles": "N#CC(c1ccc(Cl)cc1)c1cccc(C(C#N)c2ccc(Cl)cc2)n1", "note": "(centres undefined)", "TGI": "> 100 µM"}
{"smiles": "O=C1/C(=C/c2ccccc2)CN(C(=O)C(Cl)(Cl)Cl)C/C1=C\\c1ccccc1", "TGI": "2.75 µM"}
{"smiles": "O=S1(=O)c2ccccc2NC(c2ccc3ccccc3c2)CC1c1ccccc1F", "note": "(centres undefined)", "TGI": "> 100 µM"}
{"smiles": "Cc1nc2ccccc2c(N)c1-c1cc(C)c2c(C)nc3ccccc3c2n1", "GI50": 0.749, "TGI": "2.52 µM"}
{"test_system": "SN12C renal", "test": "NCI tumour cell line growth inhibition, 48 h", "units": {"TGI": "µM", "GI50": "µM"}}
{"smiles": "CCN(CCO)CC1CCCC2CCCCC21", "note": "(centres undefined)", "TGI": "> 100"}
{"smiles": "CC[C@@]1(O)C[C@H](OC2CC(N(C)C)C(O)C(C)O2)c2c(O)c3c(c(O)c2[C@H]1OC1CC(N(C)C)C(O)C(C)O1)C(=O)c1cccc(O)c1C3=O", "note": "(some centres undefined)", "GI50": "< 0.01", "TGI": 1.04}
{"smiles": "COC1(OC)CCC2C1C1CCC(OC)(OC)C21", "note": "(centres undefined)", "TGI": "> 50"}
{"smiles": "NNC(=O)Nc1cccnc1", "TGI": "> 100"}
{"smiles": "CC/C=C\\CCC/C=C1/C(=O)C=C[C@@H]1C/C=C\\CCCC(=O)OC", "GI50": 2.92, "TGI": 8.18}
{"smiles": "COc1ccc(-c2nc3sccn3c2/C(N)=N/C(=N)N)cc1OC", "GI50": 27.2, "TGI": "> 100"}
{"smiles": "CCCCCCCCCCCOc1ccc(C(=O)C(=O)c2ccc(OCCCCCCCCCCC)c(OCCCCCCCCCCC)c2)cc1OCCCCCCCCCCC", "TGI": "> 100"}
{"smiles": "Cn1cnc([N+](=O)[O-])c1Sc1nnc(-c2cccnc2)n1C", "TGI": 60.5}
{"smiles": "CCOC(=O)C1=C(C)NC(=S)NC1c1ccccc1", "note": "(centres undefined)", "TGI": "> 100"}
{"smiles": "COC1=CC(=O)c2nc(-c3ccncc3)[nH]c2C1=O", "GI50": "> 100", "TGI": "> 100"}
{"smiles": "O=C(/C=C/c1ccccc1)NC1C=Nc2ccc(Cl)cc2NC1=O", "note": "(centres undefined)", "TGI": "> 100"}
{"smiles": "CC(C)C/C(CC(=O)CCC(=O)Nc1ccccc1[N+](=O)[O-])=N\\NC(=O)c1cc2ccccc2cc1O", "TGI": "> 100"}
{"smiles": "O=C(O)c1ccccc1[Se][Se]c1ccccc1C(=O)O", "TGI": "> 100"}
{"smiles": "COc1cc(CNc2cnc3cc(N)cc(N)c3n2)cc(OC)c1", "GI50": 15.2, "TGI": 33.3}
{"smiles": "O=C(O)CCc1coc2ccc(O)cc12", "TGI": "> 100"}
{"smiles": "N#CC1C(C#N)C2(c3ccccc3)C(c3ccccc3)=NN(c3ccccc3)CC12", "note": "(centres undefined)", "TGI": "> 100"}
{"smiles": "COc1cc(Cc2cnc(/N=C3\\C(=O)N(CN4CCN(c5c(F)cc6c(=O)c(C(=O)O)cn(C7CC7)c6c5OC)CC4C)c4ccc(F)cc43)nc2N)cc(OC)c1OC", "note": "(centres undefined)", "GI50": 15.6, "TGI": 31.1}
{"smiles": "Cc1cccc2c(=O)cc(-c3ccccc3)[nH]c12", "TGI": "> 100"}
{"smiles": "O=C(Nc1ccccc1)NS(=O)(=O)c1ccc(-n2nc3c(c2-c2cccs2)Cc2ccccc2-3)cc1", "GI50": 19.9, "TGI": 64.2}
{"smiles": "CCCCOC(=O)C1OC(O[C@H]2CCC3(C)C(CCC4(C)C3CC=C3C5CC(C)(C)CCC5(C(=O)O)CC[C@]34C)C2(C)C)C(OC2OC(CO)C(O)C(O)C2O)C(OC2OC(CO)C(O)C(O)C2O)C1O", "note": "(some centres undefined)", "GI50": 21.8, "TGI": 40}
{"smiles": "Cc1nc2ccccc2c(=O)n1-c1ccccc1I", "TGI": "> 100"}
{"smiles": "CN1C(=O)C(C)(C)C2(SC(C)(C)C2(C)C)N(C)C1=S", "note": "(centres undefined)", "TGI": "> 100"}
{"smiles": "N#CCCN(CCC#N)c1ccc(/C=C2\\N=C(c3cc([N+](=O)[O-])ccc3Cl)OC2=O)cc1", "TGI": 37.8}
{"smiles": "CC1=C(C(=O)Nc2ccc(Cl)c(Cl)c2)C(c2cccc(Oc3ccccc3)c2)NC(=S)N1", "note": "(centres undefined)", "GI50": 8.75, "TGI": 15.9}
{"smiles": "CC1(c2ccc(F)cc2)C(C#N)C(=O)NC(=O)C1C#N", "note": "(centres undefined)", "TGI": "> 100"}
{"smiles": "O=C1C2C(C(=O)N1OS(=O)(=O)c1ccccc1)N(Cc1ccccc1)C(=O)N2Cc1ccccc1", "note": "(centres undefined)", "TGI": "> 100"}
{"smiles": "COc1ccc2c(C3=C(c4cn(C)c5ccccc45)C(=O)NC3=O)cn(C)c2c1", "GI50": 0.221, "TGI": "> 25"}
{"smiles": "Cc1ccc(N=Nc2ccc(N(CCC#N)CCC#N)cc2C)c(Br)c1", "TGI": "> 100"}
{"smiles": "Cc1cc(C)nc(NS(=O)(=O)c2ccc(NC(=O)c3ccc(Cl)c4c(Nc5ccc(S(=O)(=O)Nc6nc(C)cc(C)n6)cc5)c5ccccc5nc34)cc2)n1", "TGI": "> 100"}
{"smiles": "COc1ccc2c3c1C(=O)CCCC3CO2", "note": "(centres undefined)", "TGI": "> 100"}
